Data on 3 compounds can be found in ChEMBL document CHEMBL1159239, “Patellamide F, A new cytotoxic cyclic peptide from the colonial ascidian Lissoclinum patella” (1995).

This experiment in a line: Cytotoxicity against human NCI60 cells. The conditions noted are these: read-out: LC50 (the source's name). Format: functional.
For the compound `CC(C)[C@@H]1NC(=O)c2csc(n2)[C@@H](C(C)C)NC(=O)[C@H]2N=C(O[C@@H]2C)[C@H](C(C)C)NC(=O)c2csc(n2)[C@@H](Cc2ccccc2)NC(=O)[C@@H]2COC1=N2` [PATELLAMIDE F], the CC50 amounted to 48 µM.

Turning to `CC[C@H](C)[C@@H]1NC(=O)c2csc(n2)[C@@H](C)NC(=O)[C@H]2N=C(O[C@@H]2C)[C@H](CC(C)C)NC(=O)c2csc(n2)[C@@H](Cc2ccccc2)NC(=O)[C@H]2N=C1O[C@@H]2C` [PATELLAMIDE B], the CC50 was 13 µM.

For the compound `CC(C)C[C@H]1NC(=O)[C@H]2N=C(O[C@@H]2C)[C@H]2CSSC[C@@H](NC(=O)c3csc1n3)C1=N[C@H](C(=O)N[C@H](CC(C)C)c3nc(cs3)C(=O)N2)[C@@H](C)O1` [ULITHIACYCLAMIDE], the CC50 was determined as 3 µM.
